In brackets after ≈: the same amount, converted by molar mass.
System: Candida glabrata clinical isolates
Assay: Microbroth dilution assay (CLSI M27-A2) of azole susceptibility of clinical isolates;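 further: growth of C. glabrata cervicovaginal isolates in 96-well plates, absorbance at 620 nm minus medium background, 35 °C for 24 and 48 h, DMSO ≦0.5%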
Conditions: for % of isolates S (susceptible) / No. of isolates S (susceptible): 175 C. glabrata cervicovaginal clinical isolates, S = MIC ≦8 μg/ml fluconazole, ≦1 μg/ml voriconazole, proposed breakpoints for voriconazole and miconazole; for MIC: Nakaseomyces glabratus
From the text: One hundred seventy-five (175) Candida glabrata clinical isolates were retrieved from cervicovaginal swabs. Clinical isolates were obtained from cervicovaginal swabs of female patients suspected of having vulvovaginal candidiasis (WC) from across the United States. Candida glabrata PCR positive swabs were struck out on Candida CHROMagar, and individual Candida glabrata colonies were isolated for susceptibility testing using the microbroth dilution assay according to the Clinical and Laboratory Standards Institute protocol. Susceptibilities of these isolates to triazole anti-fungal drugs (e.g., fluconazole, voriconazole, and miconazole) were determined.
The microbroth dilution assays were performed using RPMI 1640 (minus glutamine, and 0.165 M MOPS to pH 7.0) (Sigma, St. Louis, Mo.). […] Drugs were obtained from the following sources: fluconazole (LKT Laboratories, St. Paul, Minn.), miconazole (MP Biomedicals, Inc., Solon, Ohio) and voriconazole (Pfizer, New York, N.Y.). All drugs were dissolved in dimethyl sulfoxide (DMSO) to a final concentration of ≦0.5% in all experiments at which C. glabrata growth was not affected.
Protocols for microbroth dilution assays (i.e., susceptibility testing) was performed by MBD according to the Clincial and Laboratory Standards Institute (CLSI) guidelines outlined in M27-A2. Azole antifungals and concentrations tested were fluconazole (2 to 128 μg/ml), voriconazole (8 to 0.125 μg/ml), and miconazole (8 to 0.125 μg/ml). Candida glabrata isolates were growth in RPMI 1640 media (minus glutamine, plus 2% glucose, and 0.165M MOPS to pH 7.0) to mid-log phase and cultures were diluted to 5×10^3 cells/ml in RPMI 1640 medium. Aliquots of 100 μl were distributed to wells of a 96-well flat-bottom plate, except for row A which received 200 μl. Drug was added to row A at the desired concentration (fluconazole, 128 μg/ml, voriconazole 8 μg/ml, and miconazole 8 μg/ml) and then serially two-fold diluted to rows B through G; row H served as a drug-free control. Plates were incubated at 35° C. for 24 and 48 hours. Absorbance at 620 nm was read with a microplate reader (Beckman Coulter, Inc., Fullerton, Calif.); background due to medium was subtracted from all readings.
The MIC was defined as the lowest concentration inhibiting growth at least 80% relative to the drug-free control.

Q: For OC(Cn1cncn1)(Cn1cncn1)c1ccc(F)cc1F [Fluconazole, fluconazole], which “% of isolates S (susceptible)” value is on record?
A: 30.9%

Q: What about the “No. of isolates S (susceptible)” value of the same compound?
A: 54

Q: What about the MIC (isolates of swab S1 (susceptible group)) of the same compound?
A: 8 µg/mL (≈ 26.1 µM)

Q: What about the MIC (isolates of swab S2 (susceptible group)) of the same compound?
A: 4 µg/mL (≈ 13.1 µM)

Q: What about the MIC (isolates of swab S3 (susceptible group)) of the same compound?
A: 4 µg/mL (≈ 13.1 µM)

Q: And the MIC (isolates of swab S4 (susceptible group))?
A: 2 µg/mL (≈ 6.53 µM)

Q: And the MIC (isolates of swab S5 (susceptible group))?
A: 4 µg/mL (≈ 13.1 µM)

Q: And the MIC (isolates of swab S6 (susceptible group))?
A: 4 µg/mL (≈ 13.1 µM)

Q: What about the MIC (isolates of swab S7 (susceptible group)) of the same compound?
A: 4 µg/mL (≈ 13.1 µM)

Q: What about the MIC (isolates of swab S8 (susceptible group)) of the same compound?
A: 4 µg/mL (≈ 13.1 µM)

Q: What about the MIC (isolates of swab S9 (susceptible group)) of the same compound?
A: 2 µg/mL (≈ 6.53 µM)

Q: What about the MIC (isolates of swab S11 (S-DD group)) of the same compound?
A: 16 µg/mL (≈ 52.2 µM)

Q: And the MIC (isolates of swab S12 (S-DD group))?
A: 16 µg/mL (≈ 52.2 µM)

Q: And the MIC (isolates of swab S13 (S-DD group))?
A: 16 µg/mL (≈ 52.2 µM)

Q: What about the MIC (isolates of swab S14 (S-DD group)) of the same compound?
A: 16 µg/mL (≈ 52.2 µM)

Q: What about the MIC (isolates of swab S15 (S-DD group)) of the same compound?
A: 32 µg/mL (≈ 104 µM)

Q: And the MIC (isolates of swab S16 (S-DD group))?
A: 16 µg/mL (≈ 52.2 µM)

Q: What about the MIC (isolates of swab S17 (S-DD group)) of the same compound?
A: 16 µg/mL (≈ 52.2 µM)

Q: And the MIC (isolates of swab S18 (S-DD group))?
A: 16 µg/mL (≈ 52.2 µM)

Q: What about the MIC (isolates of swab S19 (S-DD group)) of the same compound?
A: 32 µg/mL (≈ 104 µM)

Q: And the MIC (isolates of swab S20 (S-DD group))?
A: 32 µg/mL (≈ 104 µM)

Q: What about the MIC (isolates of swab S21 (resistant group)) of the same compound?
A: 128 µg/mL (≈ 418 µM)

Q: What about the MIC (isolates of swab S22 (resistant group)) of the same compound?
A: 128 µg/mL (≈ 418 µM)

Q: What about the MIC (isolates of swab S23 (resistant group)) of the same compound?
A: 128 µg/mL (≈ 418 µM)

Q: What about the MIC (isolates of swab S24 (resistant group)) of the same compound?
A: 128 µg/mL (≈ 418 µM)

Q: And the MIC (isolates of swab S25 (resistant group))?
A: 64 µg/mL (≈ 209 µM)

Q: And the MIC (isolates of swab S26 (resistant group))?
A: 128 µg/mL (≈ 418 µM)

Q: And the MIC (isolates of swab S27 (resistant group))?
A: 64 µg/mL (≈ 209 µM)

Q: What about the MIC (isolates of swab S28 (resistant group)) of the same compound?
A: 128 µg/mL (≈ 418 µM)

Q: And the MIC (isolates of swab S29 (resistant group))?
A: 64 µg/mL (≈ 209 µM)

Q: What about the MIC (swab S10, the single resistant isolate) of the same compound?
A: 128 µg/mL (≈ 418 µM)

Q: What about the MIC (swab S10, the two susceptible isolates) of the same compound?
A: 8 µg/mL (≈ 26.1 µM)

Q: How did the “% of isolates S (susceptible)” value turn out when Clc1ccc(COC(Cn2ccnc2)c2ccc(Cl)cc2Cl)c(Cl)c1 (stereo not shown) [Miconazole, miconazole] was run?
A: 100.0%

Q: And the “No. of isolates S (susceptible)” value?
A: 175

Q: What about the “Susceptibility of the clinical isolates (in words)” value (175 C. glabrata clinical isolates) of the same compound?
A: All of the clinical isolates were susceptible

Q: What does the source list for C[C@@H](c1ncncc1F)[C@](O)(Cn1cncn1)c1ccc(F)cc1F [Voriconazole, voriconazole]?
A: % of isolates S (susceptible): 62.3%; No. of isolates S (susceptible): 109

Reference: patent US8021846B2, “Method for determining azole resistance in Candida glabrata” (Medical Diagnostic Laboratories, LLC, priority 2008, dated 2011)
